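Following 48 hours of exposure in 96-well plates, responses at five concentrations were used to interpolate endpoints linearly. The concentration for 50% growth inhibition is given as GI50.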 Active and inactive are the calls of the source. Cut-off read from the data, not from the text of the source: active = GI50 up to about 1.1 µM and inactive = higher.
Key:
Test in all cases: NCI anticancer screen, dose series, 48 h
Hs-578T = system: Hs-578T
OVCAR-3 = system: OVCAR-3
UACC-62 = system: UACC-62
LOX IMVI = system: LOX IMVI
COLO 205 = system: COLO 205
MCF7 = system: MCF7
HL-60 = system: HL-60
MDA-N = system: MDA-N
A498 = system: A498
SF-539 = system: SF-539
HCT-15 = system: HCT-15
SN12C = system: SN12C
NCI-H23 = system: NCI-H23
TK-10 = system: TK-10
M14 = system: M14
SNB-75 = system: SNB-75
HCT-116 = system: HCT-116
NCI-H460 = system: NCI-H460
CAKI-1 = system: CAKI-1
NCI-H226 = system: NCI-H226

SMILES	GI50 (Hs-578T)	GI50 (OVCAR-3)	GI50 (UACC-62)	GI50 (LOX IMVI)	GI50 (COLO 205)	GI50 (MCF7)	GI50 (HL-60)	GI50 (MDA-N)	GI50 (A498)	GI50 (SF-539)	GI50 (HCT-15)	GI50 (SN12C)	GI50 (NCI-H23)	GI50 (TK-10)	GI50 (M14)	GI50 (SNB-75)	GI50 (HCT-116)	GI50 (NCI-H460)	GI50 (CAKI-1)	GI50 (NCI-H226)
O=C(NS(=O)(=O)Nc1ccc(Cl)cc1)OCc1ccc(Cl)cc1Cl	14.2 µM (inactive)	17.7 µM (inactive)	14 µM (inactive)	22.6 µM (inactive)	16.7 µM (inactive)	14.8 µM (inactive)	25.3 µM (inactive)	14.7 µM (inactive)	3.94 µM (inactive)	19.9 µM (inactive)	34.3 µM	25.3 µM (inactive)	20.2 µM (inactive)	16 µM (inactive)	41 µM (inactive)	35.7 µM (inactive)	20 µM (inactive)	13.4 µM (inactive)		
CCN1/C(=C/C#C/C(C)=C\c2sc3ccccc3[n+]2CC)Sc2ccccc21	2.98 µM (inactive)		2.55 µM (inactive)	2.33 µM (inactive)	1.27 µM (inactive)	4.05 µM (inactive)	0.482 µM (active)	2.9 µM (inactive)		2.9 µM (inactive)	3.69 µM	4.35 µM (inactive)		3.24 µM (inactive)	1.93 µM (inactive)	1.53 µM (inactive)	0.738 µM (active)	2.53 µM (inactive)	2.39 µM (inactive)	0.631 µM (active)
COc1cc(C2C3=C(COC3=O)OC(C)(C)Oc3cc4c(cc32)OCO4)cc(OC)c1O (configuration not stated)	1.56 µM (inactive)	0.437 µM (active)	3.27 µM (inactive)	0.706 µM (active)	2.44 µM (inactive)	0.364 µM (active)	0.291 µM (active)	0.199 µM (active)	1.04 µM (active)	0.467 µM (active)	0.873 µM	2.79 µM (inactive)	1.86 µM (inactive)		1.09 µM (active)		0.548 µM (active)	0.643 µM (active)	1.87 µM (inactive)	
CC(Br)C(=O)c1ccc2cc(Br)c3ccccc3c2c1 (configuration not stated)	23.1 µM (inactive)	12.1 µM (inactive)	15.4 µM (inactive)	6.79 µM (inactive)		14.9 µM (inactive)	12 µM (inactive)	12.9 µM (inactive)	18.7 µM (inactive)		16.6 µM	7.01 µM (inactive)	16 µM (inactive)	19 µM (inactive)	16.1 µM (inactive)	15.2 µM (inactive)	15.2 µM (inactive)	16 µM (inactive)	16.1 µM (inactive)	
CN(c1ccccc1Cl)S(=O)(=O)c1ccccc1[N+](=O)[O-]	> 100 µM (inactive)	37.8 µM (inactive)	27.1 µM (inactive)	42.6 µM (inactive)	34.2 µM (inactive)	> 10 µM (inactive)	24 µM (inactive)	33.9 µM (inactive)		35.9 µM (inactive)	48.9 µM	95.7 µM (inactive)	35.2 µM (inactive)	82 µM (inactive)	17.3 µM (inactive)	40.6 µM (inactive)	33.6 µM (inactive)	33.9 µM (inactive)	48.8 µM (inactive)	41.5 µM (inactive)
CC(C)C1CCC(=O)CC1CCCCC1CC(=O)CC1O[Si](C)(C)C(C)(C)C (configuration not stated)	3.03 µM (inactive)	14.4 µM (inactive)	4.45 µM (inactive)	2.84 µM (inactive)	4.21 µM (inactive)	4.12 µM (inactive)		4.16 µM (inactive)	8.09 µM (inactive)	4.66 µM (inactive)	3.44 µM	5.5 µM (inactive)	15.5 µM (inactive)	10.5 µM (inactive)	6.1 µM (inactive)	13.2 µM (inactive)	3.18 µM (inactive)	7.46 µM (inactive)	5.58 µM (inactive)	3.9 µM (inactive)
Nc1nc(Cl)cc(Nc2cc(Cl)cc(Cl)c2)n1	16.8 µM (inactive)	22.8 µM (inactive)	18.4 µM (inactive)	18.1 µM (inactive)	22.4 µM (inactive)	18.1 µM (inactive)		23 µM (inactive)	25.9 µM (inactive)	17 µM (inactive)	20.7 µM	22 µM (inactive)	23.1 µM (inactive)	20.4 µM (inactive)	19.3 µM (inactive)	21.7 µM (inactive)	17.5 µM (inactive)	18.2 µM (inactive)	23.4 µM (inactive)	18.7 µM (inactive)
Cn1c(=O)c2nc[nH]c2n(C)c1=O [THEOPHYLLINE]	> 100 µM (inactive)	> 100 µM (inactive)		> 100 µM (inactive)	> 100 µM (inactive)	> 100 µM (inactive)	> 100 µM (inactive)	> 100 µM (inactive)			> 100 µM	> 100 µM (inactive)	> 100 µM (inactive)	> 100 µM (inactive)	> 100 µM (inactive)		> 100 µM (inactive)	> 100 µM (inactive)	22.9 µM (inactive)	> 100 µM (inactive)

Reference: ChEMBL document CHEMBL1201862, “PubChem BioAssay data set” (2004)
